Source: ChEMBL document CHEMBL5512603, “Development of de-novo coronavirus 3-chymotrypsin-like protease (3CLpro) inhibitors since COVID-19 outbreak: A strategy to tackle challenges of persistent virus infection” (Eur J Med Chem, 2024)
pEC50, pIC50: −log10 of the molar value.

Assays:
[1] = tested on: SARS-CoV-2; assay: Antiviral activity against wild type SARS-CoV-2 infected in African green monkey VeroE6/TMPRSS2 cells at 1 MOI assessed as reduction in plaque formation measured after 48 hrs by measuring luciferase activity assay; assay type: functional, organism-based; details: Severe acute respiratory syndrome coronavirus 2, VeroE6/TMPRSS2, 48 h
[2] = tested on: SARS-CoV-2; assay: Antiviral activity against SARS-CoV-2 B.1.1.7 (Alpha) infected in African green monkey VeroE6/TMPRSS2 cells at 1 MOI assessed as reduction in plaque formation measured after 48 hrs by measuring luciferase activity assay; assay type: functional, organism-based; details: Severe acute respiratory syndrome coronavirus 2, B.1.1.7 (Alpha), VeroE6/TMPRSS2, 48 h
[3] = tested on: SARS-CoV-2; assay: Antiviral activity against SARS-CoV-2 B.1.617.1 (Kappa) infected in African green monkey VeroE6/TMPRSS2 cells at 1 MOI assessed as reduction in plaque formation measured after 48 hrs by measuring luciferase activity assay; assay type: functional, organism-based; details: Severe acute respiratory syndrome coronavirus 2, B.1.617.1 (Kappa), VeroE6/TMPRSS2, 48 h
[4] = tested on: SARS-CoV-2; assay: Antiviral activity against SARS-CoV-2 P.3 (Theta) infected in African green monkey VeroE6/TMPRSS2 cells at 1 MOI assessed as reduction in plaque formation measured after 48 hrs by measuring luciferase activity assay; assay type: functional, organism-based; details: Severe acute respiratory syndrome coronavirus 2, P.3 (Theta), VeroE6/TMPRSS2, 48 h
[5] = AUC in ICR mouse measured at 150 mg/kg, po upto 24 hrs by LC-MS/MS analysis; assay type: ADME, organism-based; details: in vivo
[6] = Half life in ICR mouse measured at 150 mg/kg, po upto 24 hrs by LC-MS/MS analysis; assay type: ADME, organism-based; details: in vivo
[7] = Oral bioavailability in ICR mouse measured at 150 mg/kg upto 24 hrs by LC-MS/MS analysis; assay type: ADME, organism-based; details: in vivo
[8] = Half life in rat; assay type: ADME; details: in vivo
[9] = tested on: SARS-CoV-2; assay: Anti-viral activity against SARS-CoV-2 infected in K18-hACE2 mouse assessed as reduction in virus in lung at 100 mg/kg, ip twice daily measured after day 3; assay type: functional; details: Severe acute respiratory syndrome coronavirus 2, 72 h, time 3 day
[10] = target: T1, Replicase polyprotein 1ab (Severe acute respiratory syndrome coronavirus 2, UniProt P0DTD1); assay: Inhibition of SARS-CoV-2 3CLp using fluorescent substrate by FRET assay
[11] = tested on: SARS-CoV-2; assay: Antiviral activity against SARS-CoV-2 infected in African green monkey Vero E6 cells at 0.1 MOI assessed as inhibition of virus induced cytopathic effect by CCK8 assay; assay type: functional, organism-based; details: Severe acute respiratory syndrome coronavirus 2, Vero C1008
[12] = tested on: SARS-CoV-2; assay: Antiviral activity against SARS-CoV-2 infected in Caco-2-ACE2 assessed as inhibition of viral replication; assay type: functional, organism-based; details: Severe acute respiratory syndrome coronavirus 2, Caco-2-ACE2
[13] = tested on: SARS-CoV-2; assay: Antiviral activity against wild type SARS-CoV-2 infected in African green monkey Vero E6 cells assessed as inhibition of virus induced cytopathic effect by MTT assay; assay type: functional, organism-based; details: Severe acute respiratory syndrome coronavirus 2, Vero C1008
[14] = tested on: SARS-CoV-2; assay: Antiviral activity against SARS-CoV-2 Alpha infected in African green monkey Vero E6 cells assessed as inhibition of virus induced cytopathic effect by MTT assay; assay type: functional, organism-based; details: Severe acute respiratory syndrome coronavirus 2, Alpha, Vero C1008
[15] = tested on: SARS-CoV-2; assay: Antiviral activity against SARS-CoV-2 Beta infected in African green monkey Vero E6 cells assessed as inhibition of virus induced cytopathic effect by MTT assay; assay type: functional, organism-based; details: Severe acute respiratory syndrome coronavirus 2, Beta, Vero C1008
[16] = tested on: SARS-CoV-2; assay: Antiviral activity against SARS-CoV-2 Delta infected in African green monkey Vero E6 cells assessed as inhibition of virus induced cytopathic effect by MTT assay; assay type: functional, organism-based; details: Severe acute respiratory syndrome coronavirus 2, Delta, Vero C1008
[17] = tested on: SARS-CoV-2; assay: Antiviral activity against SARS-CoV-2 Omicron BA.1 infected in African green monkey Vero E6 cells assessed as inhibition of virus induced cytopathic effect by MTT assay; assay type: functional, organism-based; details: Severe acute respiratory syndrome coronavirus 2, Omicron BA.1, Vero C1008
[18] = tested on: SARS-CoV-2; assay: Antiviral activity against SARS-CoV-2 Omicron BA.5 infected in African green monkey Vero E6 cells assessed as inhibition of virus induced cytopathic effect by MTT assay; assay type: functional, organism-based; details: Severe acute respiratory syndrome coronavirus 2, Omicron BA.5, Vero C1008
[19] = Cmax in cynomolgus monkey at 5 mg/kg, po; assay type: ADME, organism-based, Macaca fascicularis; details: in vivo
[20] = Tmax in cynomolgus monkey at 5 mg/kg, po; assay type: ADME, organism-based, Macaca fascicularis; details: in vivo
[21] = AUC (0 to last) in cynomolgus monkey at 5 mg/kg, po; assay type: ADME, organism-based, Macaca fascicularis; details: in vivo
[22] = Half life in cynomolgus monkey at 5 mg/kg, po; assay type: ADME, organism-based, Macaca fascicularis; details: in vivo
[23] = Half life in po dosed rat; assay type: ADME, organism-based; details: in vivo
[24] = Tmax in po dosed rat; assay type: ADME, organism-based; details: in vivo
[25] = Cmax in po dosed rat; assay type: ADME, organism-based; details: in vivo
[26] = AUClast in po dosed rat; assay type: ADME, organism-based; details: in vivo
[27] = Oral bioavailability in rat; assay type: ADME, organism-based; details: in vivo
[28] = target: T1, Replicase polyprotein 1ab; assay: Inhibition of SARS-CoV-2 Main protease assessed as hydrolysis of quenched fluorogenic substrate

Which results are given for `[2H][C@](C(=O)N[C@@H](C)c1ccc(F)cc1)(c1cccnc1)N(C(=O)C(C)=O)c1ccc2c(c1)oc1ccccc12`?
pEC50 [1]: 7.94; pEC50 [2]: 7.69; pEC50 [3]: 7.46; pEC50 [4]: 7.63; AUC at 24 h [5]: 29200 ng·h/mL; half-life [6]: 1.42 h; bioavailability [7]: 92.9%

With `O=C[C@H](C[C@@H]1CCNC1=O)NC(=O)[C@H](CC1CCCCC1)NC(=O)c1cc2ccccc2[nH]1` as the compound, how does the half-life [8] read?
Its half-life is greater than 4 h.

What about the inhibition in vivo at 100 mg/kg [9] of the same compound?
The inhibition in vivo at 100 mg/kg was 100%.

What does the source list for `O=C[C@@H](C[C@H]1CCNC1=O)NC(=O)[C@H]1[C@@H]2CCC[C@@H]2CN1C(=O)OCc1ccccc1`?
pIC50 [10]: 7.29; pEC50 [11]: 5.59; pEC50 [12]: 5.28

What does the source list for `O=C(NC1CCCC1)C(=O)[C@H](C[C@@H]1CCNC1=O)NC(=O)[C@@H]1[C@H]2CCC[C@H]2CN1C(=O)[C@@H](NC(=O)C(F)(F)F)C1CCCCC1`?
pEC50 [13]: 7.02; pEC50 [14]: 6.89; pEC50 [15]: 6.56; pEC50 [16]: 7.01; pEC50 [17]: 7.07; pEC50 [18]: 6.89; Cmax [19]: 102 nM; Tmax [20]: 1.5 h; AUC(0-t) [21]: 0.458 µM·h; half-life [22]: 14.9 h

Which results are given for `Cn1cc2cc(/N=c3\[nH]c(=O)n(Cc4cnn[nH]4)c(=O)n3Cc3cc(F)c(F)cc3F)c(Cl)cc2n1`?
half-life [23]: 2.51 h; Tmax [24]: 1 h; Cmax [25]: 6270 ng/mL; AUC(0-t) [26]: 32600 ng·h/mL; bioavailability [27]: 88.1%

With `Cc1c(Br)cncc1NC[C@@H](N)CC1CCCCC1` as the compound, how does the pIC50 [28] read?
The pIC50 was 5.12.
